In patent publication US20130267516A1, “SUBSTITUTED CYCLOPENTYL-AZINES AS CASR-ACTIVE COMPOUNDS” (LEO PHARMA A/S, priority 2010, published 2013):

What follows are compounds tested against T1, human CaSR (Homo sapiens, UniProt P41180) (assay: Functional whole cell assay (modulation of human CaSR), IP1 accumulation in CHO-K1 cells). Conditions: CHO-K1 cells stably expressing human CaSR, final Ca2+ 1.9 mM, IP1 readout; concentration giving 50% of maximum agonistic response.
T1 construct: The ORF coding for the human CaSR (genebank: NM_000388)
T1 sequence (P41180 20-1078): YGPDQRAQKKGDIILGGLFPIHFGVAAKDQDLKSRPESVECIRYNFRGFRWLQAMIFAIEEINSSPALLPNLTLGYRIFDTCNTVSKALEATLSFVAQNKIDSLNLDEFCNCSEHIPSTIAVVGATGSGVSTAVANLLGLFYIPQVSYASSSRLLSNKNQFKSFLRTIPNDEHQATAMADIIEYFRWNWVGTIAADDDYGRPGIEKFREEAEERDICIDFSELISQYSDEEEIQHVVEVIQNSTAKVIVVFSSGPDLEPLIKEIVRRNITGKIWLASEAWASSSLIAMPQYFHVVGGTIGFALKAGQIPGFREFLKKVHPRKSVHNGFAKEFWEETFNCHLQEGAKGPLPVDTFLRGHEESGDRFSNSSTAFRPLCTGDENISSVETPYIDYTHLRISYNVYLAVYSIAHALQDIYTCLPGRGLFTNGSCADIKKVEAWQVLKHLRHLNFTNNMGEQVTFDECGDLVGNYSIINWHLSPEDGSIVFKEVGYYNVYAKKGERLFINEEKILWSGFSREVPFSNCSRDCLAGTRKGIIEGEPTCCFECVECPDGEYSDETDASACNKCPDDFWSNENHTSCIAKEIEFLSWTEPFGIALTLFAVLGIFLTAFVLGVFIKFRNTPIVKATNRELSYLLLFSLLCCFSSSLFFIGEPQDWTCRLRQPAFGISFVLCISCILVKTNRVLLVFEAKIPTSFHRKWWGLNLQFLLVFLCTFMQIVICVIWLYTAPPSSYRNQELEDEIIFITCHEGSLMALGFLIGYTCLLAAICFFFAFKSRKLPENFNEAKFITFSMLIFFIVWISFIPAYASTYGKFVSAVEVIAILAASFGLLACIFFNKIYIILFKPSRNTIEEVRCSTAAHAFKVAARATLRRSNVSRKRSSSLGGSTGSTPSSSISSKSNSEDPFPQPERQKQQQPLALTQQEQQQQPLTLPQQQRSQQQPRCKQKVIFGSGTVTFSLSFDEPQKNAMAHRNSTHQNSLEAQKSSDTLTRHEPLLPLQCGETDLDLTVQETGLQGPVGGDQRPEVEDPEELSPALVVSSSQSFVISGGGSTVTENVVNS
Assay type: cell-based
From the text: The assay investigates a compound's functional ability to act as a biological positive modulator on the human CaSR. Activation of the receptor expressed on CHO-K1 cells is detected through the G alpha q pathway, the activation of phospholipase C and the accumulation of intracellular inositol phosphate (IP) as described earlier [Sandrine Ferry, Bruno Chatel, Robert H. Dodd, Christine Lair, Danielle Gully, Jean-Pierre Maffrand, and Martial Ruat. Effects of Divalent Cations and of a Calcimimetic on Adrenocorticotropic Hormone Release in Pituitary Tumor Cells. Biochemical and biophysical research Communications 238, 866-873 (1997)]. The human CaSR is stably expressed on a CHO-K1 cell clone, stimulated with a basal level of calcium and challenged with the tested compound. The level of IP1 is determined using the IP-One Terbium htrf kit (Cisbio, France). CHO-K1 cells not transfected with the CaSR fail to elicit an IP1 response upon calcium and/or compound stimulation.
The ORF coding for the human CaSR (genebank: NM_000388) was acquired from Invitrogen Corp, USA and subsequently cloned into the mammalian expression vector pCDA3.1.
CHO-K1 cells were transfected using Lipofectamine according to manufacturer's protocol (400.000 cells/well were seeded in a 6-well plate and transfected after 24 hours using 2 μg DNA and 5 μl lipofectamine). After another 24 hours the cells were detached, seeded and subjected to 1 mg/ml of G-418. Following 7 days growth single clones were picked, the CaSR expression evaluated using the 5C10 antibody against CaSR, the clones with the highest expression were selected and tested for functional response. The preferred clone was cultured according to standard procedures described in ATCC (American Type Culture Collection) protocols for CHO-K1 with the addition of 500 μg/ml G-418.
On the assay day, cells were thawed, harvested and resuspended to 4*10^6 cells/ml in stimulation buffer (containing: Hepes 10 mM, MgCl2 0.5 mM, KCl 4.2 mM, NaCl 146 mM, glucose 5.5 mM, LiCl 50 mM, BSA 0.5% at pH 7.4). Ten μl cell solution was pipetted into wells of a white 384-well plate (Perkin Elmer Optiplate) containing 2 μl compound diluted in assay buffer (containing: Hepes 10 mM, MgCl2 0.5 mM, KCl 4.2 mM, NaCl 146 mM, glucose 5.5 mM, LiCl 50 mM, CaCl2 11.4 mM at pH 7.4), resulting in a final Ca^2+ concentration of 1.9 mM. After compound stimulation for 1 hour at 37° C. and 15 min at room temperature, 10 ul of IP-One assay detection reagent (prepared as described by the IP-One assay kit manufacturer) was added and the plate was incubated for another 1 hour at room temperature. Finally the plate was read using a Perkin Elmer EnVision, according to the protocol supplied by the IP-One assay kit manufacturer. The FRET ratio was calculated by dividing the 665 nm emission signal with that of the 615 nm.
The molar concentration of a compound that produces 50% of the maximum agonistic response (the […] value) is calculated according to the equation “General sigmoidal curve with Hill slope, a to d” (Equation 1). This model describes a sigmoidal curve with an adjustable baseline. The equation can be used to fit curves where response is either increasing or decreasing with respect to the independent variable, X.
y=(a−d)/(1+(x/c)̂b)+d Equation 1.
x=concentration of tested compound y=response (%) a=min response as compound concentration approaches 0 d=max response as concentration of tested compound is increasing c=IC50 for the curve b=Hill coefficient or curve slope

SMILES	EC50
COc1cc([C@@H](C)N[C@H]2CC[C@@H](c3ccc(N4CCN(C(C)=O)CC4)nc3)C2)ccc1F [Compound 116, 1-[4-[5-[(1R,3S)-3-[[(1R)-1-(4-Fluoro-3-methoxyphenyl)ethyl]amino]cyclopentyl]-2-pyridyl]piperazin-1-yl]ethanone]	< 200 nM
COc1cc([C@@H](C)N[C@H]2CC[C@@H](c3ccc(N4CCNC(=O)C4)nc3)C2)ccc1F [Compound 109, 4-[5-[(1R,3S)-3-[[(1R)-1-(4-Fluoro-3-methoxy-phenyl)ethyl]amino]cyclopentyl]-2-pyridyl]piperazin-2-one]	< 200 nM
COc1cc([C@@H](C)N[C@H]2CC[C@@H](c3ccc(NCC(O)CO)nc3)C2)ccc1F (stereo partly drawn) [Compound 115, 3-[[5-[(1R,3S)-3-[[(1R)-1-(4-Fluoro-3-methoxyphenyl)ethyl]amino]cyclopentyl]-2-pyridyl]amino]propane-1,2-diol]	200 to 1000 nM
COc1cc([C@@H](C)N[C@H]2CC[C@@H](c3ccc(NC4CCNCC4)nc3)C2)ccc1F [Compound 107, 5-[(1R,3S)-3-[[(1R)-1-(4-Fluoro-3-methoxy-phenyl)ethyl]amino]cyclopentyl]-N-(4-piperidyl)pyridin-2-amine]	< 200 nM
COc1cc([C@@H](C)N[C@H]2CC[C@@H](c3ccc(NCCS(N)(=O)=O)nc3)C2)ccc1F [Compound 113, 2-[[5-[(1R,3S)-3-[[(1R)-1-(4-Fluoro-3-methoxyphenyl)ethyl]amino]cyclopentyl]-2-pyridyl]amino]ethanesulfonamide]	< 200 nM

Further lines, results first:

EC50	SMILES
< 200 nM	C[C@@H](N[C@H]1CC[C@@H](c2ccc(NCCNCCO)nc2)C1)c1cccc2ccccc12.O=CO.O=CO.O=CO [Compound 101, 2-[2-[[5-[(1R,3S)-3-[[(1R)-1-(1-Naphthyl)ethyl]amino]cyclopentyl]-2-pyridyl]amino]ethylamino]ethanol]
200 to 1000 nM	COc1cc([C@@H](C)N[C@H]2CC[C@@H](c3cnc(N4CCN(C(C)=O)CC4)nc3)C2)ccc1F.O=CO [Compound 127, 1-[4-[5-[(1R,3S)-3-[[(1R)-1-(4-Fluoro-3-methoxy-phenyl)ethyl]amino]cyclopentyl]pyrimidin-2-yl]piperazin-1-yl]ethanone]
< 200 nM	COc1cc([C@@H](C)N[C@H]2CC[C@@H](c3cnc(N4CCNC(=O)C4)nc3)C2)ccc1F [Compound 126, 4-[5-[(1R,3S)-3-[[(1R)-1-(4-Fluoro-3-methoxy-phenyl)ethyl]amino]cyclopentyl]pyrimidin-2-yl]piperazin-2-one]
